System: children with confirmed ASD diagnoses
Experiment: Outcome of therapies received prior to the subject treatment, as reported by parents
Format: in vivo, human

Row | Molecule | result of prior treatment by Valtrex and Viferon (patient one, given together) | result of prior Valtrex, according to parents the most effective prior therapy (patient two) | result of prior 5-metylhydrofolate and Metylcobalamin B-12 (patient one, given together)
1 | CC(C)[C@H](N)C(=O)OCCOCn1cnc2c(=O)[nH]c(N)nc21 [Valtrex, valacyclovir] | they are getting sick more rarely, learned to swim and to communicate through PECS cards | they became more communicative, attempts to speak appeared, became calmer, eye contact has improved | 
2 | Metylcobalamin B-12 |  |  | more self-dependence
3 | CN1c2c(nc(N)[nH]c2=O)NCC1CNc1ccc(C(=O)N[C@@H](CCC(=O)O)C(=O)O)cc1 (stereo partly shown) [5-metylhydrofolate] |  |  | more self-dependence
